From PubChem BioAssay (NCI)
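The concentration for 50% growth inhibition is given as GI50. TGI denotes the concentration required for complete inhibition of growth.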

Legend:
Experiment in all cases: NCI anticancer screen, dose series, 384-well format
A549 NSCLC = system: A549 NSCLC
COLO 205 colon = system: COLO 205 colon
OVCAR-4 ovarian = system: OVCAR-4 ovarian
SF-268 CNS = system: SF-268 CNS
HS 578T breast = system: HS 578T breast
SF-295 CNS = system: SF-295 CNS
RXF 393 renal = system: RXF 393 renal
UACC-257 melanoma = system: UACC-257 melanoma
SR leukemia = system: SR leukemia
HOP-92 NSCLC = system: HOP-92 NSCLC
NCI-H460 NSCLC = system: NCI-H460 NSCLC
HCC-2998 colon = system: HCC-2998 colon
HOP-62 NSCLC = system: HOP-62 NSCLC

Structure (SMILES) | GI50 (A549 NSCLC) [µM] | TGI (A549 NSCLC) [µM] | GI50 (COLO 205 colon) [µM] | TGI (COLO 205 colon) [µM] | GI50 (OVCAR-4 ovarian) [µM] | TGI (OVCAR-4 ovarian) [µM] | GI50 (SF-268 CNS) [µM] | TGI (SF-268 CNS) [µM] | GI50 (HS 578T breast) [µM] | TGI (HS 578T breast) [µM] | GI50 (SF-295 CNS) [µM] | TGI (SF-295 CNS) [µM] | GI50 (RXF 393 renal) [µM] | TGI (RXF 393 renal) [µM] | GI50 (UACC-257 melanoma) [µM] | TGI (UACC-257 melanoma) [µM] | GI50 (SR leukemia) [µM] | TGI (SR leukemia) [µM] | GI50 (HOP-92 NSCLC) [µM] | TGI (HOP-92 NSCLC) [µM] | other results
c1ccc2c(NCCCN3CCN(CCCNc4c5ccccc5nc5ccccc45)CC3)c3ccccc3nc2c1 | 0.445 | 1.93 | 1.28 | 3.06 | 0.446 | 1.22 | 0.301 | 1.19 | 0.174 | 1.17 | 1.03 | 3.49 | 0.421 | 1.46 | 1.39 | 2.7 | 0.155 | 0.328 | 0.425 | 2.45 | GI50 (NCI-H460 NSCLC): 0.17 µM; TGI (NCI-H460 NSCLC): 0.384 µM; GI50 (HCC-2998 colon): 0.391 µM; TGI (HCC-2998 colon): 1.51 µM; GI50 (HOP-62 NSCLC): 0.0964 µM; TGI (HOP-62 NSCLC): 0.463 µM
CN1CCN(c2ccc(-c3cccc(CN4CCOCC4)c3)cc2NC(=O)c2c[nH]c(=O)cc2C(F)(F)F)CC1 | 14.4 | > 100 | 8.59 | > 89 | 50.4 | > 100 | 14.7 | > 29.6 | 12.2 | 34.4 | 17.8 | 56.8 | 11.4 | 33.3 | 15.3 | 28.7 | 12.2 | 24.8 | 24.9 | > 77.4 | GI50 (NCI-H460 NSCLC): 8.79 µM; TGI (NCI-H460 NSCLC): 23.5 µM; GI50 (HCC-2998 colon): 29.9 µM; TGI (HCC-2998 colon): > 63.9 µM; GI50 (HOP-62 NSCLC): 21 µM; TGI (HOP-62 NSCLC): > 65.3 µM
